The values below come from patent US20050004133A1, “Modulators of VR1 receptor” (priority 2003, published 2005).

The target in this assay is human VR1 (Homo sapiens, UniProt Q8NER1). To be noted: 50 μM capsazepine; HEK-293 clones expressing hVR1; any concentration of capsaicin.
Sequence of human VR1 (Q8NER1 whole entry): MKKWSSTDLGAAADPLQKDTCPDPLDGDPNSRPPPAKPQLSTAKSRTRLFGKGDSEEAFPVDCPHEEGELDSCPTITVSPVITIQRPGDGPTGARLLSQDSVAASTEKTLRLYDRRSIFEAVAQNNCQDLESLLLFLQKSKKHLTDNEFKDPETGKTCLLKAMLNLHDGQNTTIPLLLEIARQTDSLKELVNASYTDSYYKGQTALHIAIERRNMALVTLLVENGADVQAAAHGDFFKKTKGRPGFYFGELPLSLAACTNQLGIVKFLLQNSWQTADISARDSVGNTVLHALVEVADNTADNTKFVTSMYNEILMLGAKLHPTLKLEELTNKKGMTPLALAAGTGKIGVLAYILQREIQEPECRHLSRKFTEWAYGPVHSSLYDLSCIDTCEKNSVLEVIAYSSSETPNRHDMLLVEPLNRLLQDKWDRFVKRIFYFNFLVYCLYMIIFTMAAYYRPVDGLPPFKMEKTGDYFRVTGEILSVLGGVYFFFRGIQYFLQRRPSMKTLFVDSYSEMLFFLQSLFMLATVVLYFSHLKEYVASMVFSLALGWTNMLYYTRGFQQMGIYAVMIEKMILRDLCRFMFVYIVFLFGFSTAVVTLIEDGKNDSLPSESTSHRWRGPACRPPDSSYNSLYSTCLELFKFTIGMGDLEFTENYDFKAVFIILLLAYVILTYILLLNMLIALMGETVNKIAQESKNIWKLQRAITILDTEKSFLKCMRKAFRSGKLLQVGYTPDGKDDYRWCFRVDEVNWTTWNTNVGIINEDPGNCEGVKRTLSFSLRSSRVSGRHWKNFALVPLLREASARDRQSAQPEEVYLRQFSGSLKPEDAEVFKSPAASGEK

With `Oc1cc2c(cc1O)CN(C(=S)NCCc1ccc(Cl)cc1)CCC2` [capsazepine], the “response to capsaicin in the presence of capsazepine” value is recorded as “failed to respond to any concentration of capsaicin”.
